Columns and labels:
[1] = Experimental: Six volunteer subjects who are regular users of nicotine pouches containing 8 mg of nicotine were each administered an oral pouch of the disclosure containing 3 mg of 6-methylnicotine. Each subject used the 6-methylnicotine pouch in the same manner as a nicotine pouch, by placing the pouch inside the mouth and adjacent to the lip and gum.
[2] = oral dissolvable film containing 1.6 mg of 6-methylnicotine, placed inside the cheek, compared to a film containing 2 mg of nicotine; four volunteer subjects, self-reported
Experimental: Four volunteer subjects were provided with an oral dissolvable film according to the disclosure containing 1.6 mg of 6-methylnicotine and an oral dissolvable film containing 2 mg of nicotine. Each subject placed the nicotine strip against the inside of their cheek and noted their physiological response. Subjects abstained from nicotine or tobacco usage for 1 hour after consuming the nicotine strip, then placed the 6-methylnicotine strip according to the disclosure against the inside of their cheek and noted their physiological response.

[3] = measured approximately 1 minute after placing the pouch adjacent to the gum line; five blindfolded volunteer subjects, one-hour break between tests
Experimental: Five volunteer subjects compared the effects of nicotine consumption and 6-methylnicotine consumption on blood pressure Subjects were blindfolded and had their blood pressure measured before using a pouch (to provide a baseline blood pressure) and re-measured approximately 1 minute after placing a nicotine pouch or a 6-methylnicotine pouch adjacent to the gum line. All subjects performed the test with a nicotine pouch and with a 6-methylnicotine pouch on the same day with a one-hour break between the tests.

Cc1ccc([C@@H]2CCCN2C)cn1 (stereo in doubt) [6-methylnicotine]
physiological effect, such as a "head rush" experienced during pouch usage ([1]; in vivo, po): more potent physiological effect | desire to use nicotine- or tobacco-based products after use of the pouch ([1]; oral pouch containing 3 mg of 6-methylnicotine, six volunteer subjects who regularly use 8 mg nicotine pouches, self-reported): zero desire to use nicotine- or tobacco-based products | physiological response (as a perceived "head rush") [2]: stronger physiological response | blood pressure following usage of a 6-methylnicotine pouch versus a nicotine pouch [3]: No significant difference

Reference: US20240350476A1 (priority 2023, published 2024)
